Experimental data from BigSolDB 2.1.

CCc1nnc(NC(=O)CCCCCNC(C)=O)s1
solubility (mole fraction)
Conditions	288.15 K	293.15 K	298.15 K	303.15 K	308.15 K	313.15 K	318.15 K
in ethanol	0.000578	0.000733	0.000965	0.00118	0.00162	0.0021	0.0026
in n-hexane	1.54e-05	1.81e-05	2.15e-05	2.47e-05	3.05e-05	3.55e-05	4.13e-05
in n-octanol	0.000685	0.000814	0.000961	0.00113	0.00142	0.00167	0.00194
